Experimental data reported in PMC2213148 (The Journal of Experimental Medicine, 2005).

T1: PPAR-γ (Homo sapiens, UniProt P37231)
T1 sequence (P37231 231-505 limits assumed): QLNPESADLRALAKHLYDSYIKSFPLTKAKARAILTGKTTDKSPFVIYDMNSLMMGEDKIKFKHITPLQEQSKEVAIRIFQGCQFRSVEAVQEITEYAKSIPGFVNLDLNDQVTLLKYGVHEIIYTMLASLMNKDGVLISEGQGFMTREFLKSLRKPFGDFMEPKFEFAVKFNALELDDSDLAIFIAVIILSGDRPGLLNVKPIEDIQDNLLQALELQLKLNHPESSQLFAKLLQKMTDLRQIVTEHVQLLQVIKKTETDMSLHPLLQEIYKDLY

B1: [35S]methionine-labeled human PPAR-γ (receptor, UniProt P37231-1 1-505, looked up)
chain: MGETLGDSPIDPESDSFTDTLSANISQEMTMVDTEMPFWPTNFGISSVDLSVMEDHSHSFDIKPFTTVDFSSISTPHYEDIPFTRTDPVVADYKYDLKLQEYQSAIKVEPASPPYYSEKTQLYNKPHEEPSNSLMAIECRVCGDKASGFHYGVHACEGCKGFFRRTIRLKLIYDRCDLNCRIHKKSRNKCQYCRFQKCLAVGMSHNAIRFGRMPQAEKEKLLAEISSDIDQLNPESADLRALAKHLYDSYIKSFPLTKAKARAILTGKTTDKSPFVIYDMNSLMMGEDKIKFKHITPLQEQSKEVAIRIFQGCQFRSVEAVQEITEYAKSIPGFVNLDLNDQVTLLKYGVHEIIYTMLASLMNKDGVLISEGQGFMTREFLKSLRKPFGDFMEPKFEFAVKFNALELDDSDLAIFIAVIILSGDRPGLLNVKPIEDIQDNLLQALELQLKLNHPESSQLFAKLLQKMTDLRQIVTEHVQLLQVIKKTETDMSLHPLLQEIYKDLY
modifications: [35S]methionine-labeled

Tests used:
[1] = molecular target: T1, PPAR-γ; experiment: competitive radioligand binding with [3H]rosiglitazone on purified LBD
[2] = molecular target: GST-DRIP-205 fusion protein (UniProt Q15648 1-1581); experiment: pull-down
Sequence of GST-DRIP-205 fusion protein (Q15648 whole entry, the tested form may be a part): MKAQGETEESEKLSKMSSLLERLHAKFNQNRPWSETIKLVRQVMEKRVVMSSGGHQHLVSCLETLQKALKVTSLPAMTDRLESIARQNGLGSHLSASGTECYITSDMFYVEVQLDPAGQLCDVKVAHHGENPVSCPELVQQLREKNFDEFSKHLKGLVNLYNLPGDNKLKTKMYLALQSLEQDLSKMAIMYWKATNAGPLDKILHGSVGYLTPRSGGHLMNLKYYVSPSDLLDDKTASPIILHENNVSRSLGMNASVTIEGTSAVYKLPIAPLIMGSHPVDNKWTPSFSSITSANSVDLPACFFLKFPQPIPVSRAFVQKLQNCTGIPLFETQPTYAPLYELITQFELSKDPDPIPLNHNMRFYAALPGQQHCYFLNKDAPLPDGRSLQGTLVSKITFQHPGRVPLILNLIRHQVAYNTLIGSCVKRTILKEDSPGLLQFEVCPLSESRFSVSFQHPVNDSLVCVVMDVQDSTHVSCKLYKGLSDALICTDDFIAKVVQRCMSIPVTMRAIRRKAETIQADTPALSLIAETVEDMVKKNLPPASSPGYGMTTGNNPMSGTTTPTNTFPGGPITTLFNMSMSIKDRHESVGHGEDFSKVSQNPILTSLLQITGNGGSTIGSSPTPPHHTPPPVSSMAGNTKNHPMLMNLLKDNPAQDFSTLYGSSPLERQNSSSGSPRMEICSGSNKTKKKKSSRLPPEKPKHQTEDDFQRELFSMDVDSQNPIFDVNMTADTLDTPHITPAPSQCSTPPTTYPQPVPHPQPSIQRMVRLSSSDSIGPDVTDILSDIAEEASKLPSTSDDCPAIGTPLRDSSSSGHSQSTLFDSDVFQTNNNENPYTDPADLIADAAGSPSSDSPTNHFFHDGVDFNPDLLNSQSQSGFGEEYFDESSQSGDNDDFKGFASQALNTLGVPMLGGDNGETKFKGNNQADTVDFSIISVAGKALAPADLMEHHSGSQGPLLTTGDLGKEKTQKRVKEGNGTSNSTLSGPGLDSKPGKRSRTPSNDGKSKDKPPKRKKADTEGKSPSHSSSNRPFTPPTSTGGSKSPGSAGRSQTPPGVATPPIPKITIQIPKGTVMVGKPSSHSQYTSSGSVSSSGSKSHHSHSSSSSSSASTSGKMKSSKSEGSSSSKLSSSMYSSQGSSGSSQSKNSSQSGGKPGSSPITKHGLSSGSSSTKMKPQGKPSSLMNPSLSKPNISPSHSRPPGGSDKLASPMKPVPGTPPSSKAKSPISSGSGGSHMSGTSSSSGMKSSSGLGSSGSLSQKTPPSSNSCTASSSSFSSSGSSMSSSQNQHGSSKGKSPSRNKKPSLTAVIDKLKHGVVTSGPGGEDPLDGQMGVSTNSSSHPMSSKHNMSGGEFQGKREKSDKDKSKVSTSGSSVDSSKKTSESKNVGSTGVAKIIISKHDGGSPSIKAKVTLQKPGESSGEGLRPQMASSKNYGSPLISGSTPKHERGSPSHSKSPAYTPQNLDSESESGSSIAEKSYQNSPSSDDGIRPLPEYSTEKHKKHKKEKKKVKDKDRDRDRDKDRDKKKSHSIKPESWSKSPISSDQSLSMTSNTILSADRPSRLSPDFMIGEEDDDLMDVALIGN

Row | Molecule | Ki [1] | amount bound with 5-ASA (5 mM) relative to that with rosiglitazone (10^-5 M) [2]
1 | Nc1ccc(O)c(C(=O)O)c1 [5-ASA] | 28.7 mM | –
2 | B1 | – | ~150%
